Laboratory results: patent US20160237059A1, “HETEROCYCLIC SUBSTITUTED TRIFLUOROMETHYL PYRIMIDINONES AND THEIR USE” (BAYER PHARMA AKTIENGESELLSCHAFT, priority 2013, published 2016)

Legend:
[1] = biological target: T1, murine CCR2 (Mus musculus, UniProt P51683); assay: Functional β-arrestin recruiting test with murine MCP-1 (B-2b); type: cell-based; details: U2OS β-arrestin cell line transfected with murine CCR2; agonist murine MCP-1; in some cases means of several determinations
T1 construct: host or cells: U2OS β-arrestin cell line
Method: The antagonistic action of test substances on CCR2 was determined in a β-arrestin test. The PathHunter β-arrestin GPCR test system (DiscoveRx Corporation, Ltd.) is a cell-based functional method for detecting binding of β-arrestin to an activated receptor. The molecular basis is a […] complementation measured by the enzymatic conversion of a chemiluminescent substrate. The test cell used was a U2OS β-arrestin cell line transfected with murine CCR2 (93-0543C3, DiscoveRx Corporation, Ltd.).
(§1) The test substances were dissolved in dimethyl sulphoxide (DMSO) at a concentration of 10 mM and serially diluted with DMSO in steps of 1:3.16 for a 10-point dose/activity analysis. According to the desired test concentrations, the substances were pre-diluted in Tyrode with 2 mM CaCl2 and 0.05% BSA.
The cells, cultivated in MEM Eagle (supplemented with 10% FCS, 50 U/ml of penicillin, 50 μg/ml of streptomycin, 250 μg/ml of hygromycin and 500 μg/ml of geniticin), were sown at 2000 cells/25 μl in 384 well, μCLEAR/black cell culture plates from Greiner (#781092) and incubated at 37° C. for 24 h. The sowing medium consisted of Opti-MEM (supplemented with 1% FCS, 50 U/ml of penicillin and 50 μg/ml of streptomycin). The cells were pre-incubated for 10 min with 10 μl of the test substances diluted in buffer, and 10 μl of agonist solution [human MCP-1 (PeproTech, #300-04) in Tyrode with 0.05% BSA) were then added. The human MCP-1 was employed at the concentration which corresponds to the EC50 which had been determined in a preliminary test (usually about 3 nM). After 90 min of incubation at 37° C., the solution was removed, and recruitment of β-arrestin to CCR2 was detected with the aid of the PathHunter detection reagent (93-001, DiscoveRx Corporation, Ltd.) according to the instructions of the manufacturer. Luminescence was measured after an incubation time of 60 min using a proprietary luminescence imaging measuring instrument. The molar concentration of the test substance which caused 50% inhibition of the MCP-1 effect (IC50) was determined using a 4-parameter logistic function (Hill function).
The test was carried out in a manner identical to that described above under B-2a, but using murine MCP-1 (PeproTech, #250-10) as agonist.

[2] = biological target: T2, human CCR2 (Homo sapiens, UniProt P41597); assay: Functional Ca2+ release test (B-1); type: cell-based; details: Chem-1 cell line transfected with human CCR2; 50% inhibition of the MCP-1 effect, MCP-1 at EC50 (about 5 nM); in some cases means of several determinations
T2 construct: host or cells: Chem-1 cell line
T2 sequence (P41597 1-360 isoform P41597-2): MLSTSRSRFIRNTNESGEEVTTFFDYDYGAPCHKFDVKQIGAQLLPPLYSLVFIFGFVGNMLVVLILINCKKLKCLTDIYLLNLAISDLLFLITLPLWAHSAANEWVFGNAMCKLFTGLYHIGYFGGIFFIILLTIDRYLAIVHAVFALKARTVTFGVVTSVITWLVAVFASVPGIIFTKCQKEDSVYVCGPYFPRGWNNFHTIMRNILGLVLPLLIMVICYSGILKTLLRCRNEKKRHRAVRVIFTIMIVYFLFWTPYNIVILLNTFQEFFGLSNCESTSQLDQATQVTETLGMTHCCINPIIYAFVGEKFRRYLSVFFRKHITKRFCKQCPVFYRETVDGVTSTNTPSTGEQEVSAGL
Method: The antagonistic action of test substances on CCR2 was determined in a functional Ca^2+ release test. Binding of CCL2/MCP-1 to CCR2 leads to a change in the conformation of the receptor resulting in Gi/Gq protein activation and intracellular signal cascade. This involves, inter alia, an intracellular Ca^2+ release. The test cell used was a Chem-1 cell line transfected with human CCR2 (ChemiSCREEN™ CCR2B Calcium-Optimized FLIPR Cell Line, Merck Millipore).
as §1
The cells, cultivated in DMEM high glucose [supplemented with 10% FCS, 1 mM pyruvate, 15 mM HEPES, 500 μg/ml geniticin and non-essential amino acids (NEAA)], were sown at 5000 cells/25 μl in 384 well, μCLEAR/black cell culture plates from Greiner (#781092) and incubated at 37° C. for 24 h. The sowing medium consisted of DMEM high glucose [supplemented with 5% FCS, 1 mM pyruvate, 15 mM HEPES, 50 U/ml penicillin, 50 μg/ml streptomycin and non-essential amino acids (NEAA)]. The medium was then removed and the cells were charged for 60 min at 37° C. with Fluo-4 dye [25 μl Tyrode with 3 μM Fluo-4 AM (1 mM DMSO stock solution), 0.4 mg/ml Brilliant Black, 2.5 mM probenicid, 0.03% Pluronic F-127]. The cells were pre-incubated for 10 min with 10 μl of the test substances diluted in buffer, and 20 μl of agonist solution (MCP-1 in Tyrode with 0.05% BSA) were then added. MCP-1 was employed at the concentration which corresponds to the EC50 which had been determined in a preliminary test (usually about 5 nM). Ca^2+ release was monitored over a period of 120 s in 1 s increments in a proprietary fluorescence imaging reader. The molar concentration of the test substance which caused 50% inhibition of the MCP-1 effect (IC50) was determined using a 4-parameter logistic function (Hill function).

T1 sequence (P51683 whole entry): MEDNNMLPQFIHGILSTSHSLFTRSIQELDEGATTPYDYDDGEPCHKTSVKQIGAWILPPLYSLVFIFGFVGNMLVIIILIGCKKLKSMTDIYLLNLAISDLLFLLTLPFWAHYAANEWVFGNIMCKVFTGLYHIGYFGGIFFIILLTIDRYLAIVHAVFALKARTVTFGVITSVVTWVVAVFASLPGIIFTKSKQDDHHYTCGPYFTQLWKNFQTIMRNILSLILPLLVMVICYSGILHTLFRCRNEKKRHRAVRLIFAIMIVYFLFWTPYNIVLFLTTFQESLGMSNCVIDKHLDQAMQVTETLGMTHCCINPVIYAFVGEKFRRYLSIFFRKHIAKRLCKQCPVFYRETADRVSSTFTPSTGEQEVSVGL

Structure (SMILES) | IC50 [1] [nM] | IC50 [2] [nM]
CSc1cccnc1-c1nc(C(F)(F)F)c(Oc2ccc(Cl)c(Cl)c2)c(=O)[nH]1 [Example 115, 5-(3,4-dichlorophenoxy)-2-[3-(methylsulphanyl)pyridin-2-yl]-6-(trifluoromethyl)pyrimidin-4(3H)-one] | 7.6 | 0.2
CS(=O)(=O)c1cccnc1-c1nc(C(F)(F)F)c(Oc2ccc(Cl)c(Cl)c2)c(=O)[nH]1 [Example 268, 5-(3,4-Dichlorophenoxy)-2-[3-(methylsulphonyl)pyridin-2-yl]-6-(trifluoromethyl)pyrimidin-4(3H)-one] | 484 | 5.8
COc1ccc2c(-c3nc(C(F)(F)F)c(Oc4ccc(Cl)c(C(F)(F)F)c4)c(=O)[nH]3)noc2c1 [Example 207] | 4490 | 81
CCCc1cc(-c2nc(C(F)(F)F)c(Oc3ccc(Cl)c(Cl)c3)c(=O)[nH]2)no1 [Example 215] | 1150 | 7.9
CC(=O)Nc1ccc(-c2nc(C(F)(F)F)c(Oc3ccc(Cl)c(Cl)c3)c(=O)[nH]2)nc1 [Example 202] | 212 | 0.9
O=c1[nH]c(-c2cccnc2)nc(C(F)(F)F)c1Cc1ccc(Cl)c(C(F)(F)F)c1 [Example 165, 5-[4-chloro-3-(trifluoromethyl)benzyl]-2-(pyridin-3-yl)-6-(trifluoromethyl)pyrimidin-4(3H)-one] | 3370 | 14
O=c1[nH]c(-c2ncccc2Br)nc(C(F)(F)F)c1Oc1ccc(Cl)c(Cl)c1 [Example 181, 2-(3-bromopyridin-2-yl)-5-(3,4-dichlorophenoxy)-6-(trifluoromethyl)pyrimidin-4(3H)-one] | 7.9 | 0.7
O=c1[nH]c(-c2ncccc2Cl)nc(C(F)(F)F)c1Oc1ccc(Cl)cc1 [Example 210] | 349 | 3
COc1nccnc1-c1nc(C(F)(F)F)c(Oc2ccc(Cl)c(Cl)c2)c(=O)[nH]1 [Example 117, 5-(3,4-dichlorophenoxy)-2-(3-methoxypyrazin-2-yl)-6-(trifluoromethyl)pyrimidin-4(3H)-one] | 36 | 0.3
CC(C)(C)c1nncn1-c1nc(C(F)(F)F)c(Oc2ccc(Cl)c(Cl)c2)c(=O)[nH]1 [Example 251] | 6760 | 76
COc1cccnc1-c1nc(C(F)(F)F)c(Oc2ccc(Cl)c(C)c2)c(=O)[nH]1 [Example 194, 5-(4-chloro-3-methylphenoxy)-2-(3-methoxypyridin-2-yl)-6-(trifluoromethyl)pyrimidin-4(3H)-one] | 59 | 0.3
Cc1cc(-c2nc(C(F)(F)F)c(Oc3ccc(Cl)c(Cl)c3)c(=O)[nH]2)no1 [Example 231] | 249 | 0.1
COc1ccc(-c2nc(C(F)(F)F)c(Oc3ccc(Cl)c(Cl)c3)c(=O)[nH]2)nc1 [Example 148, 5-(3,4-dichlorophenoxy)-2-(5-methoxypyridin-2-yl)-6-(trifluoromethyl)pyrimidin-4(3H)-one] | 454 | 42
CC(C)Oc1ccnc(-c2nc(C(F)(F)F)c(Oc3ccc(Cl)c(Cl)c3)c(=O)[nH]2)c1 [Example 145, 5-(3,4-dichlorophenoxy)-2-(4-isopropoxypyridin-2-yl)-6-(trifluoromethyl)pyrimidin-4(3H)-one] | 2810 | 322
O=c1[nH]c(-c2cccnn2)nc(C(F)(F)F)c1Oc1ccc(Cl)c(Cl)c1 [Example 125, 5-(3,4-dichlorophenoxy)-2-(pyridazin-3-yl)-6-(trifluoromethyl)pyrimidin-4(3H)-one] | 475 | 9.5

Second part, the compound after the results:

IC50 [1] [nM] | IC50 [2] [nM] | Structure (SMILES)
874 | 1.8 | CCc1cc(-c2nc(C(F)(F)F)c(Oc3ccc(Cl)c(C(F)(F)F)c3)c(=O)[nH]2)no1 [Example 217]
983 | 8.7 | Cc1ccc(-c2nc(C(F)(F)F)c(Oc3ccc(Cl)c(C(F)(F)F)c3)c(=O)[nH]2)nc1C [Example 158, 5-[4-chloro-3-(trifluoromethyl)phenoxy]-2-(5,6-dimethylpyridin-2-yl)-6-(trifluoromethyl)pyrimidin-4(3H)-one]
405 | 27 | O=c1[nH]c(-c2ncccc2C(F)(F)F)nc(C(F)(F)F)c1Oc1ccc(Cl)c(Cl)c1 [Example 185, 5-(3,4-dichlorophenoxy)-6-(trifluoromethyl)-2-[3-(trifluoromethyl)pyridin-2-yl]pyrimidin-4(3H)-one]
1570 | 14 | CN(C)c1cccc(-c2nc(C(F)(F)F)c(Oc3ccc(Cl)c(C(F)(F)F)c3)c(=O)[nH]2)n1 [Example 135, 5-[4-chloro-3-(trifluoromethyl)phenoxy]-2-[6-(dimethylamino)pyridin-2-yl]-6-(trifluoromethyl)pyrimidin-4(3H)-one]
3530 | 624 | O=c1[nH]c(C2CCNCC2)nc(C(F)(F)F)c1Oc1ccc(Cl)c(C(F)(F)F)c1 [Example 259, 5-[4-chloro-3-(trifluoromethyl)phenoxy]-2-(piperidin-4-yl)-6-(trifluoromethyl)pyrimidin-4(3H)-one]
1080 | 23 | Nc1ncc(-c2nc(C(F)(F)F)c(Oc3ccc(Cl)c(C(F)(F)F)c3)c(=O)[nH]2)cn1 [Example 155, 2′-amino-5-[4-chloro-3-(trifluoromethyl)phenoxy]-6-(trifluoromethyl)-2,5′-bipyrimidin-4(3H)-one]
185 | 0.4 | COc1ccc(-c2nc(C(F)(F)F)c(Oc3ccc(Cl)c(C(F)(F)F)c3)c(=O)[nH]2)nc1 [Example 119, 5-[4-chloro-3-(trifluoromethyl)phenoxy]-2-(5-methoxypyridin-2-yl)-6-(trifluoromethyl)pyrimidin-4(3H)-one]
53 | 0.4 | COc1cn(C)nc1-c1nc(C(F)(F)F)c(Oc2ccc(Cl)c(C(F)(F)F)c2)c(=O)[nH]1 [Example 264, 5-[4-Chloro-3-(trifluoromethyl)phenoxy]-2-(4-methoxy-1-methyl-1H-pyrazol-3-yl)-6-(trifluoromethyl)pyrimidin-4(3H)-one]
1990 | 12 | Cn1nc(-c2nc(C(F)(F)F)c(Oc3ccc(Cl)c(C(F)(F)F)c3)c(=O)[nH]2)c2cccnc21 [Example 206]
300 | 0.7 | CN(C)c1ccc(-c2nc(C(F)(F)F)c(Oc3ccc(Cl)c(C(F)(F)F)c3)c(=O)[nH]2)nn1 [Example 201]
